The values that follow come from patent US20050191315A1 (priority 2002, published 2005).

Format in all cases: cell-based, human
Assay [1] relates to SEE transcytosis across T-84 cell monolayers.
In assay [2] the test system is TSST-1 transcytosis across T-84 cell monolayers.
Assay [3] deals with SEA transcytosis across T-84 cell monolayers.
Assay [4] concerns SEB transcytosis across T-84 cell monolayers.

As to KKKVTAQELD [SEB 152-161], the “transcytosis of SEE reduced” value in assay [1] is 68%. For the same sequence, in assay [2], the “transcytosis of TSST-1 reduced” value stood at 59%. Moreover, in assay [3], the “transcytosis of SEA reduced” value stood at 73%. In addition, in assay [4], the “movement of SEB across the monolayers reduced by” value was determined as 85%.
